Experimental data as given in patent EP4685142A1, “TRIAZINE COMPOUND AND USE THEREOF” (Chengdu Zenitar Biomedical Technology Co., Ltd., priority 2023, dated 2024).
pIC50: −log10 of the molar value.

Target: T1, NLRP3 inflammasome (Homo sapiens, UniProt Q96P20)
T1 construct: host or cells: THP-1 cells
Assay: Inhibitory activity of NLRP3 inflammasome in human monocytes (THP-1 cells, LPS + Nigericin, IL-1β ELISA)
Assay type: cell-based
Details: not given
Experimental: 1. Determination of inhibitory activity of NLRP3 inflammasome in human monocytes
Experimental method: THP-1 cells were cultured in RPMI culture medium containing PMA (10 µM), and then inoculated in 48-well plates at a density of 2×10^5 cells/mL, the plates were incubated overnight in a 5% CO2 incubator at 37°C. The next day, the above culture medium was replaced with Opti-MEM culture medium containing 1 µg/mL LPS. After 3 hours, the grown cells were simulated for 40 min with a drug, and then simulated for 40 min with Nigericin (10 µM), and a cell supernatant was harvested for ELISA analysis.
Table 2 Inhibitory activity of NLRP3 inflammasome

T1 sequence (Q96P20 whole entry): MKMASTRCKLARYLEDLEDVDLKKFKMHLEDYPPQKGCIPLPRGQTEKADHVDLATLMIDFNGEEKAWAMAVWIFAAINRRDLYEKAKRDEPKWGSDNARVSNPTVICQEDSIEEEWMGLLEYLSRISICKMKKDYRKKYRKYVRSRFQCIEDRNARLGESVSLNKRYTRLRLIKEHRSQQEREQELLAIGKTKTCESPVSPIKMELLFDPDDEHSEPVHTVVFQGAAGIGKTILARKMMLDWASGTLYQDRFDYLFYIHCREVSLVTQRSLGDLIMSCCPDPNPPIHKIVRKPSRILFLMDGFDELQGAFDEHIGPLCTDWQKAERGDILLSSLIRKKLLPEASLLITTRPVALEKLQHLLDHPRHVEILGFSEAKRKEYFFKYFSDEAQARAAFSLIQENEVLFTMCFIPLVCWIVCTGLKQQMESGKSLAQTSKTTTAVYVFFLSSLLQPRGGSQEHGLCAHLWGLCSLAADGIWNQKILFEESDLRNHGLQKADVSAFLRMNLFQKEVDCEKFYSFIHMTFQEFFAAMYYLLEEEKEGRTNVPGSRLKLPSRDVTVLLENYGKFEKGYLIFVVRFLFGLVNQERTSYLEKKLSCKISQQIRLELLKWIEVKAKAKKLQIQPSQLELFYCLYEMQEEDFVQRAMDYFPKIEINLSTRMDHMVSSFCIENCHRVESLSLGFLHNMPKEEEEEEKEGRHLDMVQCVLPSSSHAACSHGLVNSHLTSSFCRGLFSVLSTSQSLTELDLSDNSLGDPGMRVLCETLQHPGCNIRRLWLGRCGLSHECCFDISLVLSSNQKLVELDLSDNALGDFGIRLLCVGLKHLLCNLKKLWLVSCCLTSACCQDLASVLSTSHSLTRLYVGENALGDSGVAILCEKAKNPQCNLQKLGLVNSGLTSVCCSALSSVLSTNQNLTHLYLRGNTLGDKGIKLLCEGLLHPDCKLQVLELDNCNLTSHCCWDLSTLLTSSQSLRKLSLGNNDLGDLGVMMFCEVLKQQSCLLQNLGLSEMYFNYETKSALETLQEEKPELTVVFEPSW

`CN1CCC[C@@H](Nc2nnc(-c3ccc(-c4ccc(F)cc4)cc3O)n(C)c2=O)C1` [Compound 46, (R)-3-(4'-fluoro-3-hydroxy-[1,1'-biphenyl]-4-yl)-4-methyl-6-((1-methylpiperidin-3-yl)amino)-1,2,4-triazin-5(4H)-ketone] showed a pIC50 of 7.59.

Same assay, conditions: THP-1 cells, PMA, LPS 1 µg/mL 3 h, drug 40 min, Nigericin 10 µM 40 min, IL-1β ELISA; read-out: IC50

In order of rising pIC50:
1. CC#Cc1ccc(-c2nnc(N[C@@H]3CCCN(CCO)C3)c(=O)n2C)c(O)c1 [Compound 29, (R)-6-((1-(2-hydroxyethyl)piperidin-3-yl)amino)-3-(2-hydroxy-4-(prop-1-yn-1-yl)phenyl)-4-methyl-1,2,4-triazin-5(4H)-ketone]  7.33
2. C#Cc1ccc(-c2nnc(N[C@@H]3CCCN(CCO)C3)c(=O)n2C)c(O)c1 [Compound 26, (R)-3-(4-ethynyl-2-hydroxyphenyl)-6-((1-(2-hydroxyethyl)piperidin-3-yl)amino)-4-methyl-1,2,4-triazin-5(4H)-ketone]  7.60
3. CN1CCCC2CCN(c3nnc(-c4ccc5sccc5c4O)n(C)c3=O)C21 (stereo not drawn) [Compound 48, 3-(4-hydroxybenzo[b]thiophen-5-yl)-4-methyl-6-(7-methyloctahydro-1H-pyrrolo[2,3-b]pyridin-1-yl)-1,2,4-triazin-5(4H)-ketone]  7.73
4. CC#Cc1ccc(-c2nnc(N[C@@H]3CCCN(C)C3)c(=O)n2C)c(O)c1 [Compound 27, (R)-3-(2-hydroxy-4-(prop-1-yn-1-yl)phenyl)-4-methyl-6-((1-methylpiperidin-3-yl)amino)-1,2,4-triazin-5(4H)-ketone]  7.84

Same assay, conditions: read-out: IC50

In order of falling pIC50:
1. [2H]C([2H])([2H])C([2H])([2H])N1CCC[C@@H](Nc2nnc(-c3ccc4c(c3O)CCC4=C(F)F)n(C)c2=O)C1 [Compound 15, (R)-3-(1-(difluoromethylene)-4-hydroxy-2,3-dihydro-1H-inden-5-yl)-6-((1-(ethyl-d5)piperidin-3-yl)amino)-4-methyl-1,2,4-triazin-5(4H)-ketone]  8.84
2. CN1CCC[C@@H](Nc2nnc(-c3ccc4sccc4c3O)n(C3CC3)c2=O)C1 [Compound 21, (R)-4-cyclopropyl-3-(4-hydroxybenzo[b]thiophen-5-yl)-6-((1-methylpiperidin-3-yl)amino)-1,2,4-triazin-5(4H)-ketone]  8.45
3. Cn1c(-c2ccc3c(c2O)CCC3=C(F)F)nnc(N[C@@H]2CCCN(CCO)C2)c1=O [Compound 1, (R)-3-(1-(difluoromethylene)-4-hydroxy-2,3-dihydro-1H-inden-5-yl)-6-((1-(2-hydroxyethyl)piperidin-3-yl)amino)-4-methyl-1,2,4-triazin-5(4H)-ketone]  8.37
4. CCN1CCC[C@@H](Nc2nnc(-c3ccc(C4CC4)cc3O)n(C)c2=O)C1 [Compound 11, (R)-3-(4-cyclopropyl-2-hydroxyphenyl)-6-((1-ethylpiperidin-3-yl)amino)-4-methyl-1,2,4-triaz in-5(4H)-ketone]  8.19
5. CC#Cc1ccc(-c2nnc(N[C@@H]3CCCC[C@H]3O)c(=O)n2C)c(O)c1 [Compound 32, 3-(2-hydroxy-4-(prop-1-yn-1-yl)phenyl)-6-(((1R,2R)-2-hydroxycyclohexyl)amino)-4-methyl-1,2,4-triazin-5(4H)-ketone.]  8.07
6. O=c1c(N[C@@H]2CCCN(CCO)C2)nnc(-c2ccc3sccc3c2O)n1C1CC1 [Compound 23, (R)-4-cyclopropyl-3-(4-hydroxybenzo[b]thiophen-5-yl)-6-((1-(2-hydroxyethyl)piperidin-3-yl)amino)-1,2,4-triazin-5(4H)-ketone]  8.05
7. Cn1c(-c2ccc3ccccc3c2O)nnc(N[C@@H]2CCCC[C@H]2O)c1=O [Compound 33, 6-(((1R,2R)-2-hydroxycyclohexyl)amino)-3-(1-hydroxynaphthalene-2-yl)-4-methyl-1,2,4-tria zine-5(4H)-ketone]  7.90
8. CN1C[C@H](Nc2nnc(-c3ccc4sccc4c3O)n(C)c2=O)CC(F)(F)C1 [Compound 37, (R)-6-((5,5-difluoro-1-methylpiperidin-3-yl)amino)-3-(4-hydroxybenzb[b]thiophen-5-yl)-4-m ethyl-1,2,4-triazin-5(4H)-ketone]  7.82
9. CCN1CCC[C@@H](Nc2nnc(-c3ccc4ccccc4c3O)n(C)c2=O)C1 [Compound 19, (R)-6-((1-ethylpiperidin-3-yl)amino)-3-(1-hydroxynaphthalen-2-yl)-4-methyl-1,2,4-triazin-5(4H)-ketone]  7.72
10. CN1CCC[C@@H](Nc2nnc(-c3ccc4ccccc4c3O)n(C)c2=O)C1 [Compound 18, (R)-3-(1-hydroxy-2-naphthyl)-4-methyl-6-((1-methylpiperidin-3-yl)amino)-1,2,4-triazin-5(4H )-ketone]  7.60
11. CC#Cc1ccc(-c2nnc(N[C@@H]3CCCN(CC)C3)c(=O)n2C)c(O)c1 [Compound 28, (R)-6-((1-ethylpiperidin-3-yl)Jamino)-3-(2-hydroxy-4-(prop-1-yn-1-yl)phenyl)-4-methyl-1,2,4-triazin-5(4H)-ketone]  7.53
12. CN1CCC[C@@H](Nc2nnc(-c3ccc(C4CC4)cc3O)n(C)c2=O)C1 [Compound 39, (R)-3-(4-cyclopropyl-2-hydroxyphenyl)-4-methyl-6-((1-methylpiperidin-3-yl)amino)-1,2,4-tri azin-5(4H)-ketone]  7.52
13. Cn1c(-c2ccc3c(c2O)CCC3=C(F)F)nnc(N[C@@H]2CCCN(C3CC(F)(F)C3)C2)c1=O [Compound 14, (R)-6-((1-(3,3-Difluorocyclobutyl)piperidin-3-yl)amino)-3-(1-(difluoromethylene)-4-hydroxy-2,3-dihydro-1H-inden-5-yl)-4-methyl-1,2,4-triazin-5(4H)-ketone]  7.49
14. Cn1c(-c2ccc3ccccc3c2O)nnc(N[C@@H]2CCCN(CCO)C2)c1=O [Compound 20, (R)-6-((1-(2-hydroxyethyl)piperidin-3-yl)amino]-3-(1-hydroxynaphthalen-2-yl)-4-methyl-1,2,4-triazin-5(4H)-ketone]  7.46
15. CN1CCO[C@H](CNc2nnc(-c3ccc4sccc4c3O)n(C)c2=O)C1 [Compound 34, (R)-3-(4-hydroxybenzo[b]thiophen-5-yl)-4-methyl-6-(((4-methylmorpholino-2-yl)methyl)amino)-1,2,4-triazine-5(4H)-ketone]  7.12
16. CN1CCC[C@@H](Nc2nnc(-c3ccc(C#CC4CC4)cc3O)n(C)c2=O)C1 [Compound 44, (R)-3-(4-(cyclopropylethynyl)-2-hydroxyphenyl)-4-methyl-6-((1-methylpiperidin-3-yl)amino) -1,2,4-triazin-5(4H)-ketone]  7.10
17. CCN1CCC[C@@H](Nc2nnc(-c3ccc(C#CC4CC4)cc3O)n(C)c2=O)C1 [Compound 45, (R)-3-(4-(cyclopropylethynyl)-2-hydroxyphenyl)-6-((1-ethylpiperidin-3-yl)amino)-4-methyl-1 ,2,4-triazin-5(4H)-ketone]  6.46
18. C[C@H]1CC[C@@H](Nc2nnc(-c3ccc4sccc4c3O)n(C)c2=O)CN1C [Compound 50, 6-(((3R,6S)-1,6-dimethylpiperidin-3-yl)amino)-3-(4-hydroxybenzo[b]thiophen-5-yl)-4-methyl-1,2,4-triazin-5 (4H)-ketone]  6.46
19. CN1CCC[C@@H](Nc2nnc(-c3ccc(-c4ncccn4)cc3O)n(C)c2=O)C1 [Compound 47, (R)-3-(2-hydroxy-4-(pyrimidin-2-yl)phenyl)-4-methyl-6-((1-methylpiperidin-3-yl)amino)-1,2,4-triazin-5(4H)-ketone]  6.35
